Test results taken from patent publication US9663513B2, “Pyrimidine PDE10 inhibitors” (Merck Sharp & Dohme Corp., priority 2012, dated 2017).

Target: human PDE10A2 (Homo sapiens (Human), UniProt Q9Y233)
Test: PDE10 fluorescence polarization (IMAP FP) inhibition assay
Assay type: biochemical
Details: human PDE10A2 from transfected AD293 cells; FAM-labeled cAMP 50 nM; apparent inhibition constant; read-out: PDE10A Ki
Procedure, shortened: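 Cytoplasmic lysate of AD293 cells transiently expressing human PDE10A2 (enzyme level giving 20% conversion) incubated with 50 nM FAM-cAMP in pH 7.2 Tris/MgCl2 buffer, 30 min at room temperature. IMAP binding solution added, FP read after ≥1 h; 10-point 3-fold compound titrations fitted to a four-parameter equation.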

Chain of human PDE10A2 (Q9Y233 267-1055): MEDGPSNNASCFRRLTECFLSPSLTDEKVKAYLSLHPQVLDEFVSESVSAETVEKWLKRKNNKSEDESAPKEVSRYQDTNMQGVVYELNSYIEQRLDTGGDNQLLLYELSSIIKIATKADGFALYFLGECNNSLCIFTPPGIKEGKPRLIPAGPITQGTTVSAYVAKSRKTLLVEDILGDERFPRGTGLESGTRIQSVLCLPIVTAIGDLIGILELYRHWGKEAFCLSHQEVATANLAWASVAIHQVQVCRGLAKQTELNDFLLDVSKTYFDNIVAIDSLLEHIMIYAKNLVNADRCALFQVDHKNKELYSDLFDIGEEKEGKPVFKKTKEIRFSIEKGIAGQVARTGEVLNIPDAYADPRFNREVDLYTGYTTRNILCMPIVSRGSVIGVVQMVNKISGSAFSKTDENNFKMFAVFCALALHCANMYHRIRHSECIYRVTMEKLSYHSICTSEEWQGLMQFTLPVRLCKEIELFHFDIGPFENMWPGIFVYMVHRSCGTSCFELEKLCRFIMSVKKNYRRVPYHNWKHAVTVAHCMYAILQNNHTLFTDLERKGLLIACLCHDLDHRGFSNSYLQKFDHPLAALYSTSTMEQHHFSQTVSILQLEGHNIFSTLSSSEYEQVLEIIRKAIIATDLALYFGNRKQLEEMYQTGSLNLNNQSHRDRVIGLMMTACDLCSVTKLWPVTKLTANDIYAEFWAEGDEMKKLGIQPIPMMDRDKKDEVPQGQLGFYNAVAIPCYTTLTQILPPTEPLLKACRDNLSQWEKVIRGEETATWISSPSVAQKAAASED

Row | Structure (SMILES) | Ki [nM]
1 | Cc1ccc([C@H]2C[C@@H]2COc2nc(C)ncc2-c2ccc3[nH]ccc3c2)nc1 [Example 48, 5-(2-methyl-4-(((1S,2S)-2-(5-methylpyridin-2-yl)cyclopropyl)methoxy)pyrimidin-5-yl)-1H-indole] | 3.25
2 | COc1ccc([C@H]2C[C@@H]2COc2nc(C)ncc2C2=CC(=O)CC2)nc1 [Example 77, 3-(4-(((1S,2S)-2-(5-methoxypyridin-2-yl)cyclopropyl)methoxy)-2-methylpyrimidin-5-yl)cyclopent-2-enone] | 6.28
3 | CC[C@]1(O)CC[C@@H](c2cnc(C)nc2OC[C@H]2C[C@@H]2c2ccc(C)cn2)CC1 [Example 214, (cis)1-Ethyl-4-(2-methyl-4-(((1S,2S)-2-(5-methylpyridin-2-yl)cyclopropyl)methoxy)pyrimidin-5-yl)cyclohexanol] | 19.4
4 | COc1ccc([C@H]2C[C@@H]2COc2nc(C)ncc2-c2ccc(-c3nnn(C(F)F)n3)cc2)nc1 [Example 227, 5-(4-(2-(difluoromethyl)-2H-tetrazol-5-yl)phenyl)-4-(((1S,2S)-2-(5-methoxypyridin-2-yl)cyclopropyl)methoxy)-2-methylpyrimidine] | 3.3
5 | Cc1ccc([C@H]2C[C@@H]2COc2nc(C)ncc2[C@H]2CC[C@@](C)(O)CC2)nc1 [Example 212, (cis)1-Methyl-4-(2-methyl-4-(((1S,2S)-2-(5-methylpyridin-2-yl)cyclopropyl)methoxy)pyrimidin-5-yl)cyclohexanol] | 12.4
6 | Cc1ncc(-c2ccc(C(C)(C)O)nc2)c(OC[C@H]2C[C@@H]2c2ccc(C#N)cn2)n1 [Example 182, 6-((1S,2S)-2-((5-(6-(2-hydroxypropan-2-yl)pyridin-3-yl)-2-methylpyrimidin-4-yloxy)methyl)cyclopropyl)nicotinonitrile] | 17.8
7 | Cc1ccc([C@H]2C[C@@H]2COc2nc(C)ncc2[C@]2(F)CC[C@@H](O)CC2)nc1 [Example 210, (trans)-4-Fluoro-4-(2-methyl-4-(((1S,2S)-2-(5-methylpyridin-2-yl)cyclopropyl)methoxy)pyrimidin-5-yl)cyclohexanol] | 7.85
8 | Cc1cccc([C@H]2C[C@@H]2COc2nc(C)ncc2C2CCC3(CC2)OCCO3)n1 [Example 186, 2-methyl-4-(((1S,2S)-2-(6-methylpyridin-2-yl)cyclopropyl)methoxy)-5-(1,4-dioxaspiro[4.5]decan-8-yl)pyrimidine] | 6.67
9 | Cc1ncc([C@H]2CC[C@H](O)CC2)c(OC[C@H]2C[C@@H]2c2ccccn2)n1 [Example 199, Trans-4-(2-methyl-4-(((1S,2S)-2-(pyridin-2-yl)cyclopropyl)methoxy)pyrimidin-5-yl)cyclohexanol] | 4.79
10 | Cc1ccnc([C@H]2C[C@@H]2COc2nc(C)ncc2C2CCC(=O)CC2)c1 [Example 203, 4-(2-methyl-4-(((1S,2S)-2-(4-methylpyridin-2-yl)cyclopropyl)methoxy)pyrimidin-5-yl)cyclohexanone] | 30.8
11 | COc1ccc([C@H]2C[C@@H]2COc2nc(C)ncc2[C@H]2CC[C@@H](O)C2)nc1 [Example 79, (1R,3S)-3-(4-(((1S,2S)-2-(5-methoxypyridin-2-yl)cyclopropyl)methoxy)-2-methylpyrimidin-5-yl)cyclopentanol] | 5.6
12 | COc1ccc([C@H]2C[C@@H]2COc2nc(C)ncc2-c2cnc(C(C)(C)O)cn2)nc1 [Example 66, 2-(5-(4-(((1S,2S)-2-(5-methoxypyridin-2-yl)cyclopropyl)methoxy)-2-methylpyrimidin-5-yl)pyrazin-2-yl)propan-2-ol] | 3.14
13 | Cc1ncc(-c2ccc(C(C)O)cc2)c(OC[C@H]2C[C@@H]2c2ccccn2)n1 (stereo partly drawn) [Example 122, 1-(4-(2-methyl-4-(((1S,2S)-2-(pyridin-2-yl)cyclopropyl)methoxy)pyrimidin-5-yl)phenyl)ethanol] | 2.85
14 | Cc1ccc([C@H]2C[C@@H]2COc2nc(C)ncc2-c2ccc(=O)oc2)nc1 [Example 50, 5-(2-methyl-4-(((1S,2S)-2-(5-methylpyridin-2-yl)cyclopropyl)methoxy)pyrimidin-5-yl)-2H-pyran-2-one] | 4.28
15 | Cc1ncc(-c2ccc(C(C)(C)O)nc2)c(OC[C@@H]2C[C@H]2c2ccc(Br)cn2)n1 [Example 124, 2-(5-(4-(((1R,2R)-2-(5-bromopyridin-2-yl)cyclopropyl)methoxy)-2-methylpyrimidin-5-yl)pyridin-2-yl)propan-2-ol] | 8.57
16 | COc1ccc([C@H]2C[C@@H]2COc2nc(C)ncc2-c2cc(Cl)ncc2OCOCC[Si](C)(C)C)nc1 [Example 112, 5-(2-chloro-5-((2-(trimethylsilyl)ethoxy)methoxy)pyridin-4-yl)-4-(((1S,2S)-2-(5-methoxypyridin-2-yl)cyclopropyl)methoxy)-2-methylpyrimidine] | 19.2
17 | Cc1ccc([C@H]2C[C@@H]2COc2nc(C)ncc2-c2c(F)cccc2F)nc1 [Example 6, 5-(2,6-difluorophenyl)-2-methyl-4-(((1S,2S)-2-(5-methylpyridin-2-yl)cyclopropyl)methoxy)pyrimidine] | 1.42

The remaining molecules from weak to strong by Ki, led by results:

Row | Ki [nM] | Structure (SMILES)
18 | 2.28 | Cc1cccc([C@H]2C[C@@H]2COc2nc(C)ncc2-c2cn(C)nc2C(C)O)n1 (stereo partly drawn) [Example 161, 1-(1-methyl-4-(2-methyl-4-(((1S,2S)-2-(6-methylpyridin-2-yl)cyclopropyl)methoxy)pyrimidin-5-yl)-1H-pyrazol-3-yl)ethanol]
19 | 2.03 | COc1ccc([C@H]2C[C@@H]2COc2nc(C)ncc2-c2ccc(-c3noc(CO)n3)cc2)nc1 [Example 252, (3-(4-(4-(((1S,2S)-2-(5-methoxypyridin-2-yl)cyclopropyl)methoxy)-2-methylpyrimidin-5-yl)phenyl)-1,2,4-oxadiazol-5-yl)methanol]
20 | 1.66 | COc1ccc(-c2cnc(C)nc2OC[C@H]2C[C@@H]2c2ccc3ccccc3n2)cc1 (single isomer, unassigned) [Example 29]
21 | 1.63 | Cc1ccc([C@H]2C[C@@H]2COc2nc(C)ncc2-c2ccc(C(O)C(C)C)nc2)nc1 (stereo partly drawn) [Example 140, 2-methyl-1-(5-(2-methyl-4-(((1S,2S)-2-(5-methylpyridin-2-yl)cyclopropyl)methoxy)pyrimidin-5-yl)pyridin-2-yl)propan-1-ol]
22 | 0.93 | COc1ccc([C@H]2C[C@@H]2COc2nc(C)ncc2-c2ccc(-c3nc(CO)no3)cc2)nc1 [Example 95, (5-(4-(4-(((1S,2S)-2-(5-methoxypyridin-2-yl)cyclopropyl)methoxy)-2-methylpyrimidin-5-yl)phenyl)-1,2,4-oxadiazol-3-yl)methanol]
23 | 0.86 | CCc1ccc(-c2cnc(C)nc2OC[C@H]2C[C@@H]2c2ccc(OC)cn2)cn1 [Example 85, 5-(6-ethylpyridin-3-yl)-4-(((1S,2S)-2-(5-methoxypyridin-2-yl)cyclopropyl)methoxy)-2-methylpyrimidine]
24 | 0.7 | Cc1ccc([C@H]2C[C@@H]2COc2nc(C)ncc2-c2cc(C)ccc2C)nc1 [Example 13, 5-(2,5-dimethylphenyl)-2-methyl-4-(((1S,2S)-2-(5-methylpyridin-2-yl)cyclopropyl)methoxy)pyrimidine]
25 | 0.59 | Cc1ccc([C@H]2C[C@@H]2COc2nc(C)ncc2-c2ccncc2C(F)(F)F)nc1 [Example 17, 2-methyl-4-(((1S,2S)-2-(5-methylpyridin-2-yl)cyclopropyl)methoxy)-5-(3-(trifluoromethyl)pyridin-4-yl)pyrimidine]
26 | 0.51 | Cc1ncc(-c2ccc(C(C)(C)O)nc2)c(OC[C@H]2C[C@@H]2c2ncccc2C)n1 (single isomer, unassigned) [Example 173]
27 | 0.37 | CCc1ccc(-c2cnc(C)nc2OC[C@H]2C[C@@H]2c2ccc3ccccc3n2)cc1 (single isomer, unassigned) [Example 30]
28 | 0.24 | CCc1ccc([C@H]2C[C@@H]2COc2nc(C)ncc2-c2cn(C)nc2C(C)O)nc1 (stereo partly drawn) [Example 163, 1-(4-(4-(((1S,2S)-2-(5-ethylpyridin-2-yl)cyclopropyl)methoxy)-2-methylpyrimidin-5-yl)-1-methyl-1H-pyrazol-3-yl)ethanol]
29 | 0.23 | Cc1ccc([C@H]2C[C@@H]2COc2nc(C)ncc2-c2ccc(C(C)(C)O)nc2C)nc1 [Example 138, 2-(6-Methyl-5-(2-methyl-4-(((1S,2S)-2-(5-methylpyridin-2-yl)cyclopropyl)methoxy)pyrimidin-5-yl)pyridin-2-yl)propan-2-ol]
30 | 0.14 | CCOc1cc(-c2cnc(C)nc2OC[C@H]2C[C@@H]2c2ccc(OC)cn2)ccn1 [Example 75, 5-(2-ethoxypyridin-4-yl)-4-(((1S,2S)-2-(5-methoxypyridin-2-yl)cyclopropyl)methoxy)-2-methylpyrimidine]
31 | 0.12 | Cc1ccnc(-c2cnc(C)nc2OC[C@H]2C[C@@H]2c2ccc3ccccc3n2)c1 [Example 128, 2-((1S,2S)-2-((2-methyl-5-(4-methylpyridin-2-yl)pyrimidin-4-yloxy)methyl)cyclopropyl)quinoline]
32 | 0.1 | Cc1ncc(-c2cnc(C(C)(C)O)cc2C)c(OC[C@H]2C[C@@H]2c2ccccn2)n1 [Example 118, 2-(4-methyl-5-(2-methyl-4-(((1S,2S)-2-(pyridin-2-yl)cyclopropyl)methoxy)pyrimidin-5-yl)pyridin-2-yl)propan-2-ol]
33 | 0.06 | Cc1ncc(-c2cnc3ccccn23)c(OC[C@H]2C[C@@H]2c2ccc3ccccc3n2)n1 [Example 133, 2-((1S,2S)-2-((5-(imidazo[1,2-a]pyridin-3-yl)-2-methylpyrimidin-4-yloxy)methyl)cyclopropyl)quinoline]
34 | 0.02 | Cc1ccc([C@H]2C[C@@H]2COc2nc(C)ncc2-c2cnc(C(C)(C)O)cc2C)nc1 [Example 45, 2-(4-Methyl-5-(2-methyl-4-(((1S,2S)-2-(5-methylpyridin-2-yl)cyclopropyl)methoxy)pyrimidin-5-yl)pyridin-2-yl)propan-2-ol]
35 | 0.01 | Cc1ncc(-c2cccnc2)c(OC[C@H]2C[C@@H]2c2ccc3ccccc3n2)n1 [Example 155, 2-((1S,2S)-2-((2-methyl-5-(pyridin-3-yl)pyrimidin-4-yloxy)methyl)cyclopropyl)quinoline]
